Source: patent US4839379A, “Substituted azabicycloalkanes, the use thereof, pharmaceutical compositions containing them” (Ciba-Geigy Corporation, priority 1982, dated 1989)

Tested on: aromatase
Experiment: aromatase assay according to Graves and Salhanick using human placental microsomes in vitro
Format: biochemical
Experimental: The novel compounds of formula I and their pharmaceutically acceptable salts have, for example, valuable pharmacological properties as aromatase inhibitors. […] In this experimental method, the formation of water with tritium isotopes and 17β-oestradiol obtained from [1β,2β--^3 H]-testosterone is measured as a result of the action of a compound of the formula I on the formation of the hydrogenated form of the aromatase coenzyme, nicotinamide adenine dinucleotide phosphate (NADPH).

## Nc1ccc(C23CC2C(=O)N(CC2CCCCC2)C3=O)cc1 (centres unmarked) [Example 12, 1-(4-Aminophenyl)-3-cyclohexylmethyl-3-azabicyclo[3.1.0]hexane-2,4-dione]
Compared with measurements without addition of compound
  enzyme activity (NADPH content); content of water with radioactive tritium isotopes formed from [1β,2β-3H]-testosterone: substantially reduces the enzyme activity
Comparison with aminoglutethimide
  diminution of enzyme activity in comparison measurements with known aromatase inhibitors: substantially greater than with the addition of other known aromatase inhibitors, e.g. aminoglutethimide
